Active and inactive are the calls of the source. The rule behind the calls is not given here. Where a SMILES comes first, the peptide text is derived from it.
What was measured:
[1] = Protection against AAPH-induced hemolysis in human RBC at 50 to 100 ug/ml preincubated with compound for 20 mins followed bu AAPH addition and measured after 3 hrs by spectrophotometric analysis relative to control; type: functional, Erythrocyte; settings: dose 50-100 µg/ml; time 200 min; 3.333 h; at 50 to 100 µg/mL
SK-N-BE(2) [2] = experiment: Antioxidant acitivity against PMA-stimulated human SK-N-BE(2) cells assessed as reduction in PMA-stimulated RNS level at 50 uM incubated for 60 mins by DCFH-DA staining based flow cytometric analysis; type: functional, cell-based
[3] = Antioxidant activity assessed as trolox equivalent of AAPH radical scavenging activity preincubated for 15 mins followed by 10 sec incubation under shaking condition and measured every minute for 2 hrs by ORAC fluorescence based microplate reader analysis; type: functional; settings: time 8110.0 sec
[4] = Hemolytic activity in human red blood cell assessed as cell membrane disruption at 12.5 to 400 ug/ml incubated for 1 hrs by microplate reader analysis; type: toxicity, cell-based; settings: erythrocyte, dose 12.5-400 µg/ml
N2a [5] = experiment: Antioxidant activity in arsenite-induced mouse Neuro2a cells assessed as reduction in Nrf2 protein level at 100 uM incubated for 3 hrs by Western blot analysis; type: functional, cell-based
[6] = Antioxidant activity assessed as protection against AAPH-induced DNA degradation in to linear form incubated for 1 hrs by SYBR dye based electrophoresis; type: functional
N2a [7] = experiment: Antioxidant activity in arsenite-induced mouse Neuro2a cells assessed as increase in SOD level at 100 uM incubated for 3 hrs by Western blot analysis; type: functional, cell-based
[8] = Cytotoxicity against human SK-N-BE(2) cells assessed as reduction in cell viability incubated for 24 hrs by MTT assay; type: toxicity, cell-based
[9] = Antioxidant activity assessed as trolox equivalent of ABTS radical scavenging activity measured for 6 mins; type: functional
SK-N-BE(2) [10] = experiment: Antioxidant acitivity against PMA-stimulated human SK-N-BE(2) cells assessed as reduction in PMA-stimulated ROS level at 50 to 100 uM incubated for 60 mins by DCFH-DA staining based flow cytometric analysis; type: functional, cell-based; settings: dose 50-100 µM
Erythrocyte = experiment: Protection against AAPH-induced hemolysis in human RBC at 25 to 400 ug/ml preincubated with compound for 20 mins followed bu AAPH addition and measured after 3 hrs by spectrophotometric analysis; type: functional, cell-based; settings: dose 25-400 µg/ml, time 200.0 min

## CC[C@H](C)[C@H](NC(=O)[C@H](Cc1c[nH]c2ccccc12)NC(=O)[C@@H]1CCCN1C(=O)[C@@H](N)Cc1ccccc1)C(=O)N[C@H](C(=O)N[C@@H](CO)C(N)=O)[C@@H](C)CC (H-FPWIIS-NH2)
[1]
  Activity: >75%
SK-N-BE(2) [2]
  Activity: Active
[3]
  Activity: 674 µM/g
[4]
  Activity: Non-Toxic
N2a [5]
  Activity: Active
[6]
  Activity: Active
N2a [7]
  Activity: inactive
[8]
  CC50 at 24 h: 1730 µM
[9]
  Activity: 796 µM/g
SK-N-BE(2) [10]
  Activity: Active
Erythrocyte
  Activity: Active
